Measured values published in the supplement of paper PMC10307832.

Experiments:
Test in all cases: relative viability (nuclei count vs DMSO), 5 days (fraction); higher = more cells survive
[1] = compound: O=C(C[C@H]1NCCC[C@@H]1O)Cn1cnc2cc(Br)c(Cl)cc2c1=O (racemic) [Halofuginone] + Nc1ncn([C@H]2C[C@H](O)[C@@H](CO)O2)c(=O)n1 [Decitabine] (partner 2 µM)
Summary of the method: (§1)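 Lung cancer cell lines, seeded in 1536-well plates, were treated the following day by pin tool with a single drug or with five library-drug doses (not always all listed) in √10 steps on top of a fixed anchor-drug dose. Cells were fixed and nuclei stained in one step after 5 days, and nuclei were counted. Relative viability is the nuclei count for treated wells divided by that for vehicle wells, reported as medians of duplicate plates.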

[2] = compound: O=C(C[C@H]1NCCC[C@@H]1O)Cn1cnc2cc(Br)c(Cl)cc2c1=O (racemic) [Halofuginone] + CC(C)C[C@H](NC(=O)[C@H](Cc1ccccc1)NC(=O)c1cnccn1)B(O)O [Bortezomib] (partner 0.002 µM)
Summary of the method: as §1

[3] = compound: O=C(C[C@H]1NCCC[C@@H]1O)Cn1cnc2cc(Br)c(Cl)cc2c1=O (racemic) [Halofuginone] + CC1(C)CCC(c2ccc(Cl)cc2)=C(CN2CCN(c3ccc(C(=O)NS(=O)(=O)c4ccc(N[C@H](CCN5CCOCC5)CSc5ccccc5)c(S(=O)(=O)C(F)(F)F)c4)cc3)CC2)C1 [Navitoclax] (partner 0.5 µM)
Summary of the method: as §1

Cediranib + Crizotinib = compound: COc1cc2c(Oc3ccc4[nH]c(C)cc4c3F)ncnc2cc1OCCCN1CCCC1 [Cediranib] + C[C@@H](Oc1cc(-c2cnn(C3CCNCC3)c2)cnc1N)c1c(Cl)ccc(F)c1Cl [Crizotinib] (partner 1 µM)
Summary of the method: as §1

Row | Cell Line | relative viability ([1]; first compound 0.001 µM) | relative viability ([1]; first compound 0.003162 µM) | relative viability ([1]; first compound 0.01 µM) | relative viability ([1]; first compound 0.03162 µM) | relative viability ([1]; first compound 0.1 µM) | relative viability ([2]; first compound 0.001 µM) | relative viability ([2]; first compound 0.003162 µM) | relative viability ([2]; first compound 0.01 µM) | relative viability ([2]; first compound 0.03162 µM) | relative viability ([2]; first compound 0.1 µM) | relative viability ([3]; first compound 0.001 µM) | relative viability ([3]; first compound 0.003162 µM) | relative viability ([3]; first compound 0.01 µM) | relative viability ([3]; first compound 0.03162 µM) | relative viability ([3]; first compound 0.1 µM) | relative viability (Cediranib + Crizotinib; first compound 0.04 µM) | relative viability (Cediranib + Crizotinib; first compound 0.1265 µM) | relative viability (Cediranib + Crizotinib; first compound 0.4 µM) | relative viability (Cediranib + Crizotinib; first compound 1.265 µM) | relative viability (Cediranib + Crizotinib; first compound 4 µM)
1 | NCI-H1993 | 0.636 | 0.635 | 0.52 | 0.565 | 0.443 | 1.27 | 1.14 | 1.07 | 1.27 | 0.786 | 1.04 | 0.875 | 1.04 | 0.874 | 0.668 | 0.968 | 0.902 | 0.886 | 0.865 | 0.858
2 | LOU-NH91 | 0.809 | 0.818 | 0.787 | 0.802 | 0.817 | 0.461 | 0.498 | 0.484 | 0.459 | 0.535 | 0.746 | 0.705 | 0.719 | 0.719 | 0.536 | 0.739 | 0.767 | 0.713 | 0.727 | 0.653
3 | SW 900 | 0.484 | 0.418 | – | 0.443 | 0.358 | – | – | – | – | – | – | – | – | – | – | – | – | – | – | –
4 | LCLC-103H | 0.773 | 0.78 | 0.735 | 0.711 | 0.728 | 1.06 | 0.9 | 1.1 | 0.956 | 1.03 | – | – | – | – | – | 0.995 | 1.09 | 1.02 | 1.07 | 1.07
5 | NCI-H1915 | 0.25 | 0.265 | 0.257 | 0.274 | 0.253 | 0.522 | 1.05 | 0.93 | 1 | 0.973 | 0.776 | 0.785 | 0.8 | 0.756 | 0.771 | 1.01 | 0.851 | 0.883 | 0.873 | 0.832
6 | IA-LM | – | – | – | – | – | 0.894 | 0.741 | 0.664 | 0.533 | 0.0776 | 0.864 | 0.961 | 0.702 | 0.572 | 0.0557 | 0.775 | 1.28 | 0.718 | 0.828 | 0.992
7 | NCI-H1734 | 0.542 | 0.508 | 0.522 | 0.491 | 0.293 | 1.14 | 0.919 | 0.939 | 0.814 | 0.632 | 0.825 | 0.961 | 0.799 | 0.762 | 0.378 | 0.604 | 0.612 | 0.551 | 0.691 | 0.695
8 | SK-MES-1 | 0.377 | 0.365 | 0.341 | 0.341 | 0.17 | – | – | – | – | – | 1.22 | 1.16 | 1.18 | 0.67 | 0.197 | 1.06 | 1.05 | 0.915 | 0.963 | 1.06
9 | Calu-6 | – | – | – | – | – | 1.04 | 1.17 | 0.974 | 0.452 | 0.137 | 0.896 | 0.956 | 0.884 | 0.258 | 0.092 | 0.844 | 0.849 | 0.81 | 0.786 | 0.602
10 | NCI-H661 | 0.595 | 0.618 | 0.564 | 0.555 | 0.479 | 0.848 | 0.826 | 0.845 | 0.822 | 0.536 | – | – | – | – | – | 0.964 | 0.922 | 0.935 | 1.02 | 1.04
11 | NCI-H1395 | 0.662 | 0.69 | 0.751 | 0.631 | 0.519 | – | – | – | – | – | 1.15 | 1.44 | 1.07 | 1.16 | 1.26 | – | – | – | – | –
12 | NCI-H2228 | – | – | – | – | – | 1.06 | 0.856 | 0.988 | 0.426 | 0.151 | 0.976 | 0.857 | 0.879 | 0.228 | 0.126 | 0.54 | 0.562 | 0.545 | 0.419 | 0.327
13 | NCI-H1944 | 0.4 | 0.435 | 0.396 | 0.407 | 0.451 | – | – | – | – | – | 1.04 | 1.06 | 1.02 | 1.05 | 1.01 | 1.14 | 1.03 | 0.994 | 1.05 | 1.06
14 | NCI-H2342 | 0.664 | 0.724 | 0.722 | 0.671 | 0.685 | – | – | – | – | – | – | – | – | – | – | – | – | – | – | –
15 | NCI-H1793 | 0.511 | 0.6 | 0.505 | 0.5 | 0.21 | – | – | – | – | – | 0.409 | 0.367 | 0.406 | 0.396 | 0.195 | – | – | – | – | –
16 | NCI-H1299 | – | – | – | – | – | 1.08 | 1.02 | 1 | 0.986 | 0.851 | 1.1 | 1.05 | 1.05 | 1.02 | 0.964 | 0.982 | 0.945 | 0.957 | 0.92 | 0.929
17 | NCI-H522 | 0.735 | 0.673 | 0.871 | 0.753 | 0.717 | – | – | – | – | – | – | – | – | – | – | – | – | – | – | –
18 | NCI-H2170 | 0.479 | 0.47 | 0.453 | 0.489 | 0.457 | – | – | – | – | – | 0.631 | 0.724 | 0.595 | 0.699 | 0.387 | 1.45 | 1.42 | 1.05 | 1.13 | 1.37
19 | NCI-H1648 | 0.518 | 0.525 | 0.512 | 0.559 | 0.506 | – | – | – | – | – | – | – | – | – | – | – | – | – | – | –
20 | NCI-H1703 | – | – | – | – | – | 0.363 | 0.333 | 0.305 | 0.282 | 0.224 | 1.46 | 1.04 | 1.08 | 0.765 | 0.194 | 0.721 | 0.707 | 0.188 | 0.214 | 0.191
21 | ABC-1 | 1.11 | 1.39 | 0.926 | 1.26 | 1.04 | 0.255 | 0.328 | 0.24 | 0.367 | 0.279 | – | – | – | – | – | 1.39 | 1.17 | 1.34 | – | 0.999
22 | NCI-H650 | 0.362 | 0.314 | 0.285 | 0.323 | 0.28 | 0.903 | 0.877 | 0.717 | 0.694 | 0.576 | – | – | – | – | – | 0.7 | 0.757 | 0.612 | 0.835 | 0.639
23 | LK-2 | 0.309 | 0.261 | 0.337 | 0.328 | 0.286 | – | – | – | – | – | 0.78 | 0.979 | 0.81 | 0.931 | 0.603 | 0.19 | 0.222 | 0.247 | 0.25 | 0.257
